Data: EP4140481A1, “PROTEIN-OLIGOMER BINDING AGENTS AND THERAPEUTIC USES THEREOF” (Galyan Bio, Inc., priority 2021, dated 2023)
Where two headings read alike, the source gives them in different places.

Tests used:
[1] = test system: STHdh 111/111 striatal cells; experiment: Cell viability after heat shock (CellTiter Glo); details: Mus musculus, read-out: Cell Viability striatal cells 3h heat shocked
Description: Cell culture - ST HDH Q111/111 (CH00095, Coriell Institute) striatal derived cell line were grown at 33°C in DMEM (Sigma-Aldrich), supplemented with 10% fetal bovine serum (FBS), 1% Penicillin-Streptomycin (ThermoFisher Scientific), and 0.4 mg/ml G418 (Geneticin; Invitrogen). ST HDH Q111/111 are mouse striatal cells with polyQ length of 111.
Pre-Treatment of striatal cell line - First the medium was removed and new DMEM (DMEM, high glucose, HEPES, no phenol red) medium, supplemented with 10% fetal bovine serum (FBS), 1% Penicillin-Streptomycin, containing 10 µM compound was added. The cells were incubated at 33 °C for 24 hours.
Heat shock - Cells were heat shocked for 3 hours at 41 °C.
Treatment - Medium was removed and new DMEM (DMEM, high glucose, HEPES, no phenol red) medium, supplemented with 1% fetal bovine serum (FBS), 1% Penicillin-Streptomycin, containing 10 µM compound was added. The cells were incubated at 33 °C for 48 hours.
Cell Viability - Cell viability was measured according to manufacturer recommendations with CellTiter Glo (Promega).

mHTT = molecular target: T1, mHTT (Homo sapiens, UniProt P42858); experiment: mHTT levels in striatal cells (immunocytochemistry); format: cell-based, mouse; details: STHdh 111/111; for mHTT after treatment / remaining activity at 10 µM: 10 µM, 3 hours heat shock, 48 hours treatment, percentage in comparison to untreated STHdh 111/111, 3B5H10 antibody; for remaining activity at 10 µM: read-out: mHTT after treatment
T1 construct: host or cells: ST HDH Q111/111 mouse striatal cell line (knock-in locus)
Description: (§1) Staining - Cells were permeabilized with 0.3% Triton X-100 in 4 °C PBS (pH 7.4 from ThermoFisher) for 10 minutes. Then the cells were washed two times with 4 °C PBS. Subsequently, cells are blocked with 3% NGS (normal goat serum from Thermo Fisher) in 4 ° C PBS for 1 hour. Cells were incubated with primary antibodies in blocking buffer (PBS, 3% NGS, 0.02% NaN3) over night at 4 °C. Primary antibodies were mouse antipolyglutamine monoclonal antibody 3B5H10 (Sigma-Aldrich) at 1:250 dilution and Guinea Pig anti-MAP2 polyclonal antibody (Synaptic Systems) at 1:500 dilution. 3B5H10 binds to diffuse mHTT. Diffuse mHTT is a monomeric and small oligomeric mHTT. Diffuse mHTT is correlated to pathological parameters in Huntington's disease. Compounds that bind the mHTT will reduce the levels of diffuse mHTT detected.
Cells were washed 2 times with 4 °C PBS, and then incubated with secondary antibodies at 1:2000 dilution in blocking buffer for 1hour at room temperature. […] Cells were washed 2 times with 4 °C PBS, and then the nuclei were counterstain with DAPI (ThermoFisher) for 10 min at room temperature in the dark. Cells were washed 2 times with 4 °C PBS, and then 4 °C PBS was added to cells and then images were acquired. […] Table 11: Antibodies Used in Immunocytochemistry Studies
Fluorescence Imaging - Imaging sessions were performed on a confocal microscope system (Carl Zeiss Microscopy) equipped with a dual spinning disk unit (Yokogawa). All components of the imaging system were controlled via the ZEN 2 software suite (Carl Zeiss Microscopy). The laser lines used were 405 nm, 488 nm and 639 nm to excite DAPI or the respective fluorophores. […] Nested t test was performed to calculate the significance amongst repeated measurements using GraphPad Prism software.
as §1, with “For LC3 staining primary antibodies were mouse anti-LC3 mab (5F10) (nanoTools) at 1:500 dilution” for “3B5H10 binds to diffuse mHTT. Diffuse mHTT is a monomeric”, “Guinea Pig anti-MAP2 polyclonal antibody (Synaptic Systems) at 1:500 dilution.” for “small oligomeric mHTT. Diffuse mHTT is correlated to pathological parameters in Huntington's disease. Compounds that bind the mHTT will reduce the levels of diffuse mHTT detected.”
Cells were washed 2 times with 4 °C PBS, and then incubated with secondary antibodies at 1:2000 dilution in blocking buffer for 1hour at room temperature. […] Cells were washed 2 times with 4 °C PBS, and then the nuclei were counterstain with DAPI (ThermoFisher) for 10 min at room temperature in the dark. Cells were washed 2 times with 4 °C PBS, and then 4 °C PBS was added to cells and then images were acquired.
EC 50 value was determined with non-linear regression.

STHdh 7/7 striatal cells = experiment: Cell viability after heat shock (CellTiter Glo); format: cell-based; details: Mus musculus, 48 hours treatment, percentage in comparison to pre-heat shock cell viability, read-out: Cell Viability striatal cells 3h heat shocked
Description: RESULTS-Table 12bsummarizes the effect of the compounds on cell viability. STHdh 7/7 were heat shocked for 3 hours and treated for 48 hours with small molecule compounds. Table 12b lists the cell viability in striatal cells after 48 hours.
Effect of Compound 22 on Cell Viability of Wildtype Striatal Neurons - STHdh 7/7 cells are striatal cells that express wildtype huntingtin. These cells were cultured in the same conditions as described above for STHdh 111/111. The neurons were first heat shocked for 3 hours at 41 °C as described above. After 48 hours of treatment with the small molecule Compounds, cell viability was determined using the method described above. The "buffer" control is represents cells treated with a buffer only, without any compounds added. Some of the compounds show higher cell viability in comparison to control heat shocked STHdh 7/7 neurons with buffer and no treatment (Figure 5).

Mur16 and/or Mur46 = experiment: Biacore Surface Plasmon Resonance (SPR) screening, binding to the target structures; details: for Binding properties: third analog screening, binding to the target structure in comparison to parent compound; for Biacore affinity: primary screen, compounds that demonstrated binding to Mur16 and/or Mur46
Description: Exon 1 of the HTT huntingtin (NCBI Gene ID 3064) was expressed as a fusion protein with (i) TRX only (MurTRX); (ii) 16Q (Mur16); and (iii) 46Q (Mur46). MurTRX, Mur16, and Mur46 were produced and purified by HIStag and size exclusion chromatography (SEC). The protocol for MurTRX, Mur16 and Mur46 expression was adopted from Bennett, M.J. et al. Proc. Natl. Acad. Sci. USA 99, 11634-11639. 2002.
Primary Screen - Results - 39 compounds determined from the in-silico screen were tested. Following solvent correction and blank subtraction, double referenced binding levels for samples were plotted against binding levels on both Mur 16 and Mur 46. […] The 4 compounds consistently bind with a higher response on the 16 Q surface than the 46 Q repeat surface, despite the MAb positive control showing the opposite trend.

Exon1 Q46 = Exon1 Q46 (Homo sapiens, UniProt P42858, INS38QQQQQQQQQQQQQQQQQQQQQQQQQ); experiment: Circular dichroism study; format: binding; details: Exon1 Q46
Description: Protein samples were diluted with buffer to 7.5 µM prior to Circular Dichroism (CD) measurements. Measurements were conducted at room temperature.
Four spectra at each measurement were taken every 1 nm from 200 to 260 nm, scanning at 50 nm/min with an averaging time of 1 sec. Spectra were obtained from samples in 20 mM phosphate, pH 7.4. Ten scans were averaged for each sample spectrum
Single-wavelength readings at 222 nm were obtained. After subtraction of the Trx contribution, the α-helical content of Httex1 was estimated from its mean residue ellipticity (MREHttex1) at 222 nm. This calculation was conducted as described by Bravo-Arredondo (Bravo-Arredondo, J.M. et al., J Biol Chem. 2018 Dec 21;293(51):19613-19623).
MRE Exon-1 Q16 and Q46 (Mean Residue Ellipticity) was measured every 1 sec for 300 sec; the 301 readings for each sample were averaged and MRE Trx subtracted. The number of amino acids in each sample to experience a change in helicity was estimated using a previously developed helix-coil transition model, which gave the change in fraction of helicity (ΔfHelix) by the following equation: fHelix = (MREHttex1 −MRECoil)/(MREHelix −MRECoil) [formula] where MRE Exon1 Q26 or Q46 (MREHttex1 in the formula) describes the helix-coil transition, obtained from the difference between MRE Eon1 Q26 or Q46 at 222 nm of the fusion protein at the given temperature (in our case 37 °C) and the product of MRE Trx at 222 nm at the same temperature and the fraction of residues comprised by Trx in that particular construct, and MRECoil = 2220−53T,MREHelix =; (−44,000+250T)(1−(3)/(Nr)) [formula] given T as the temperature in °C and Nr as the number of residues.
In order to calculate an equilibrium of the two states model, percent α-helicity was calculated using the relation of MREHttex1 = 0 and -34700 (deg cm^2 dmol^-1) for 0% and 100% helicity, respectively. Table 14: Comparison between Kd, reversal of conformational changes of Exon1 Q46 and reduction of mHTT in comparison to untreated striatal neurons
The CD measurements protocol for Compound 101 was the same as outlined above except that from 206 nm - 210 nm and 220 nm - 224 nm, the step size was 0.2 nm, and the bandwidth was 1nm.

zebrafish larvae = experiment: Motility Zebrafish Model (MPP+ exposure, photomotor assay and sleep); details: 500 µM MPP+ alone (naïve 40.8)
Description: Six groups were included in each experiment. Immediately after spawning, 40 embryos per group were allocated to a 24-well plate and system water (solvent) was added to all wells. […] MPP+ was prepared immediately prior to incubation and solutions were changed daily. At 120 hpf, drug treatment and MPP+ exposure was ceased and a 3X wash was performed with system water. Larvae were then relocated to 96-well plates for behavioral recording and placed in a separate recording room for 24-hour acclimation. Prior to behavioral recording, wells were fully replenished system water.
Naive group was exposed to solvent only. Vehicle group was exposed to solvent and vehicle corresponding to the vehicle of 20 µM drug solution (0.02% DMSO). MPP+ positive control was exposed to solvent and 500 µM MPP+.
Behavioral data was recorded from 1 p.m. on 6 dpf until shortly after wakening on 7 dpf. The recording consisted of a photomotor assay in which lights switch off and on in 30-minute intervals between 1 p.m. and 6 p.m., producing a consistent photomotor response. […] Upon lights being turned on again, the larvae cease movement followed by a return to baseline. This cycle is repeated five times. Following the last lights-off phase, constant illumination is presented until lights turn off at 10 p.m. for the night. Lights turn on again at 8 a.m. the following day.
Average movement frequency was measured during 30-minute lights-on phases of photomotor assay.
Distance moved (mm) was defined as the average distance moved during 30-minute lights-on phases of photomotor assay.
All data are presented as mean ± standard error of the mean (sem). For analysis of differences between groups, a Kruskal-Wallis one-way ANOVA with Dunn's multiple comparison post hoc test was performed. P < 0.05 was considered statistically significant.

T1 sequence (P42858 with tags, fused parts or gaps with the stated changes): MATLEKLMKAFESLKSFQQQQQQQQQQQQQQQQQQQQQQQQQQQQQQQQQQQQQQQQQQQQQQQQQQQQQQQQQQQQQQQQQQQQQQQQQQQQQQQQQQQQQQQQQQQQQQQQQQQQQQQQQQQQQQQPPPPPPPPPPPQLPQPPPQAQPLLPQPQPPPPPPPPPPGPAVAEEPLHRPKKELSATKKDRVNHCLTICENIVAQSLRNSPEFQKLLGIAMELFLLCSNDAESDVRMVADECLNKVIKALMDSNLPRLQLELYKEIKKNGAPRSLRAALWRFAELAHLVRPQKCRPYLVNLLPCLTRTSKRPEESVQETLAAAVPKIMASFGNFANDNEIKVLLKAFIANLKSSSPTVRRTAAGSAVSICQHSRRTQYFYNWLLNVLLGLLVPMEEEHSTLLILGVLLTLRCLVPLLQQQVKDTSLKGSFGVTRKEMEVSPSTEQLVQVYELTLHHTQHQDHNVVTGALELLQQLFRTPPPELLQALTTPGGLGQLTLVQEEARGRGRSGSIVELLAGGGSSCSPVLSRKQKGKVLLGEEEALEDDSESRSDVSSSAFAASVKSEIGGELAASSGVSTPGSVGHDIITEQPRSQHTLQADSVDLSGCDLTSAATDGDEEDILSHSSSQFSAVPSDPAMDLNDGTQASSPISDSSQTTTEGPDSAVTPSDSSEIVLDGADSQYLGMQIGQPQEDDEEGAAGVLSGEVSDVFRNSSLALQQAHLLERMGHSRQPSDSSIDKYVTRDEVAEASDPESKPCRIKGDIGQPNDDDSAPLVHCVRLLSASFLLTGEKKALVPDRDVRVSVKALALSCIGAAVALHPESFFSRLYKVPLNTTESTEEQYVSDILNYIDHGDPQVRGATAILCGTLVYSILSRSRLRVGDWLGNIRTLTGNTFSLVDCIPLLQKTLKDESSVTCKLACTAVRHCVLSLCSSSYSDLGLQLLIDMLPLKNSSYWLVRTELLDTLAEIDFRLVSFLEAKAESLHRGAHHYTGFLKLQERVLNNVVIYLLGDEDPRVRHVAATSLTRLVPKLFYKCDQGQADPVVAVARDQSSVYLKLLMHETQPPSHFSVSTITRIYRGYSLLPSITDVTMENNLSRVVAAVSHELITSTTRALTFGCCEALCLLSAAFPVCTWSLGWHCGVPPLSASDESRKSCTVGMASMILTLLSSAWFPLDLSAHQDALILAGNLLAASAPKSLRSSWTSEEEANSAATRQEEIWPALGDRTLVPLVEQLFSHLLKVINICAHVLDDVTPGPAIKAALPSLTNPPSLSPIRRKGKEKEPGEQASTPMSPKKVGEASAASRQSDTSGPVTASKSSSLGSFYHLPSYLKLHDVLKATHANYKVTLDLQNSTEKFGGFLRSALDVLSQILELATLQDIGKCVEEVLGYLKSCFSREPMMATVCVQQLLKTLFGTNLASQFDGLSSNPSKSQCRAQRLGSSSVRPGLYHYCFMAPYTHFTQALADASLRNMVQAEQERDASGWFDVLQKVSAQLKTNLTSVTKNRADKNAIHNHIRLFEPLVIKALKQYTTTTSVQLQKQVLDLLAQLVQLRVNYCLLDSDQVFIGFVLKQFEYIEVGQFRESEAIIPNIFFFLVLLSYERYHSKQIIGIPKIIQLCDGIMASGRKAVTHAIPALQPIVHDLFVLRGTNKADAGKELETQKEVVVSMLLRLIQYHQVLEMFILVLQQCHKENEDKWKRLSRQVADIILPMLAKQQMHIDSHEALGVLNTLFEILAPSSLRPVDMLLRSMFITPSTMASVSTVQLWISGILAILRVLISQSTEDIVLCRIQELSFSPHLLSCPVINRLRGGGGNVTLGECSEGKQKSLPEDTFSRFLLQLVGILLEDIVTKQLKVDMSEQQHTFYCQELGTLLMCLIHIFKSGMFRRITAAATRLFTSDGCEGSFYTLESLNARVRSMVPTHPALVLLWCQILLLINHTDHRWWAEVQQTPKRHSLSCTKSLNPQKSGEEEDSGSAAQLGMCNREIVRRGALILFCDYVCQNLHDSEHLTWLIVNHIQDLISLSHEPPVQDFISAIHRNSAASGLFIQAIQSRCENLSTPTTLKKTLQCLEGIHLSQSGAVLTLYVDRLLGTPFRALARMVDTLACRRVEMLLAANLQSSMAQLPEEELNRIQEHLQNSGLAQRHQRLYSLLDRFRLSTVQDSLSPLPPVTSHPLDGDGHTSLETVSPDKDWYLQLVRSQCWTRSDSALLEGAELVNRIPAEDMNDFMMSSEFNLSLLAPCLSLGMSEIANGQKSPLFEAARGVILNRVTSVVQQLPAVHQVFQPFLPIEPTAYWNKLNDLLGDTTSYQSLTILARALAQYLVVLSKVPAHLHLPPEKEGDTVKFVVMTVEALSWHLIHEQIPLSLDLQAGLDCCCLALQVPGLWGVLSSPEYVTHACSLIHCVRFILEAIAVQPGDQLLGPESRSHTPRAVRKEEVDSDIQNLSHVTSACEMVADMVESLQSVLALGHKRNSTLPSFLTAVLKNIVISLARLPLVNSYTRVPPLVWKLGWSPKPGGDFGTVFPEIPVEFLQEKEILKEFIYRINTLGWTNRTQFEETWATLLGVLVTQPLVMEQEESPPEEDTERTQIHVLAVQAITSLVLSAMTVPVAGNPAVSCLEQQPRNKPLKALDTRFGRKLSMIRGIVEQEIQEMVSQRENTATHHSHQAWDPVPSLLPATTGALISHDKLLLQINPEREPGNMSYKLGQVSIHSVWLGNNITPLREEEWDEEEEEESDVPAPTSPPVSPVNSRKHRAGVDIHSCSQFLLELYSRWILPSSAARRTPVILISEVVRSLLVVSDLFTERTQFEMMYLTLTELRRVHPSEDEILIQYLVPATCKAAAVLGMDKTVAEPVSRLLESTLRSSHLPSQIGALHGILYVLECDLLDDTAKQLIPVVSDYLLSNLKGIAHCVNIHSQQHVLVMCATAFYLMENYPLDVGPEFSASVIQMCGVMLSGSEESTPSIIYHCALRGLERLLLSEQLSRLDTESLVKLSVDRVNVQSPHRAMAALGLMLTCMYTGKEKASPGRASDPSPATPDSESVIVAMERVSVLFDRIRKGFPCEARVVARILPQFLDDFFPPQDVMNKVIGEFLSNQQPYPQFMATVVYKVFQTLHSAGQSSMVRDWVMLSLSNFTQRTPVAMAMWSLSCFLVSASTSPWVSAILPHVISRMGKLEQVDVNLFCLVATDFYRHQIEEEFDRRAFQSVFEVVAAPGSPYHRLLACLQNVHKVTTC
Sequence of Exon1 Q46 (P42858 with tags, fused parts or gaps with the stated changes): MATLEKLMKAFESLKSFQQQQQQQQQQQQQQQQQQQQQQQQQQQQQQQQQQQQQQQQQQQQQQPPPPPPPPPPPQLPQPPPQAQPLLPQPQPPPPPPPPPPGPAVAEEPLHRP

## CCc1[nH]c2ccc(C(=O)NCCN3CCN(C)CC3)cc2c1C [Compound 9]
[1]; 48 h
  viability at 10 µM: 88%
mHTT
  mHTT after treatment: 37%

## Cc1[nH]c2ccc(C(=O)NCCN3CCN(C)CC3)cc2c1C [Compound 24]
[1]
  viability at 10 µM: 103%
mHTT
  remaining activity at 10 µM: 47%

## Cc1[nH]c2ccc(C(=O)NCCN3CCOCC3(C)C)cc2c1C [Compound 28]
[1]
  viability at 10 µM: 18%
mHTT
  remaining activity at 10 µM: 51%
STHdh 7/7 striatal cells
  viability at 10 µM: 52.4%

## CC(C)N(CCNC(=O)c1ccc2[nH]c3c(c2c1)CCCC3)C(C)C [Compound 34]
[1]; 48 h
  viability at 10 µM: 60%
mHTT
  mHTT after treatment: 56%

## O=C(NCCN1CCCCC1)c1ccc2[nH]c3c(c2c1)CCC3 [Compound 35]
[1]
  viability at 10 µM: 103%
mHTT
  remaining activity at 10 µM: 56%

## Cc1c(C)n(C)c2ccc(C(=O)NCCN(C(C)C)C(C)C)cc12 [Compound 39]
[1]; 48 h
  viability at 10 µM: 117%
STHdh 7/7 striatal cells
  viability at 10 µM: 154%

## Cc1[nH]c2ccc(C(=O)NCCNC(C)(C)C)cc2c1C [Compound 50]
[1]
  viability at 10 µM: 67%
mHTT
  remaining activity at 10 µM: 72%
STHdh 7/7 striatal cells
  viability at 10 µM: 40.9%

## Cc1[nH]c2ccc(C(=O)NCCN(C)C3CCCC3)cc2c1C [Compound 55]
[1]; 48 h
  viability at 10 µM: 67%
mHTT
  mHTT after treatment: 91%

## CC(C)N(CCNC(=O)c1ccc2[nH]c3c(c2c1)CCCC3)C(C)C [Compound 57]
Mur16 and/or Mur46
  Binding properties: ++

## Cc1[nH]c2ccc(C(=O)NC3CCC(N(C)C)CC3)cc2c1C (stereo not drawn) [Compound 101, N-(4-(dimethylamino)cyclohexyl)-2,3-dimethyl-1H-indole-5-carboxamide]
Exon1 Q46
  Kd: 70 nM
Exon1 Q46; conc. Compound 0.01 µM
  Fraction Helix fH: 20.5%
Exon1 Q46; conc. Compound 0.059 µM
  Fraction Helix fH: 20.1%
Exon1 Q46; conc. Compound 0.158 µM
  Fraction Helix fH: 19.9%
Exon1 Q46; conc. Compound 0.647 µM
  Fraction Helix fH: 19.1%
Exon1 Q46; conc. Compound 1.62 µM
  Fraction Helix fH: 19.0%
Exon1 Q46; conc. Compound 4.04 µM
  Fraction Helix fH: 18.5%
Exon1 Q46; conc. Compound 13.68 µM
  Fraction Helix fH: 18.7%
Exon1 Q46; conc. Compound 37.77 µM
  Fraction Helix fH: 18.2%
mHTT
  mHTT after 3 h heat shock and following 48 hours of compound treatment in comparison to untreated STHdh 111/111: 38%
  remaining activity at 10 µM: 38%

## Cc1[nH]c2ccc(C(=O)Nc3ccccc3NC3CCN(C)CC3)cc2c1C [Compound 103]
Mur16 and/or Mur46
  Binding properties: ++

## Cc1[nH]c2ccc(C(=O)NCCN(C)C3CCCC3)cc2c1C [Compound 105]
Mur16 and/or Mur46
  Binding properties: ++

## O=C(O)C1Cc2c([nH]c3ccccc23)C(c2cccc(Br)c2)N1 (stereo not drawn) [Compound 109]
Mur16 and/or Mur46
  Biacore affinity: 3 RU^2

## Cc1[nH]c2ccccc2c1[C@]1(O)C(=O)Nc2c(Br)cc(Br)cc21 [Compound 110]
Mur16 and/or Mur46
  Biacore affinity: 80 RU^2

## Cc1[nH]c2ccc(C(=O)NCC(=O)NC(C)C)cc2c1C [Compound 113]
Mur16 and/or Mur46
  Biacore affinity: 160 RU^2

## CON1CCC(NC(=O)c2ccc3[nH]c(C)c(C)c3c2)CC1 [Compound 115]
STHdh 7/7 striatal cells
  viability at 10 µM: 136%

## CCN(CC)C(=O)CNC(=O)c1ccc2[nH]c(C)c(C)c2c1 [Compound 116]
STHdh 7/7 striatal cells
  viability at 10 µM: 118%

## Cc1[nH]c2ccc(C(=O)N(C)CCN3C[C@@H](C)O[C@@H](C)C3)cc2c1C [Compound 117]
STHdh 7/7 striatal cells
  viability at 10 µM: 118%

## Cc1c(C)n(Cc2ccccc2)c2ccc(C(=O)NCCN(C)C)cc12 [Compound 118]
STHdh 7/7 striatal cells
  viability at 10 µM: 110%

## Cc1[nH]c2ccc(C(=O)N3CCN(C(C)C)CC3)cc2c1C [Compound 119]
STHdh 7/7 striatal cells
  viability at 10 µM: 101%

## COC[C@H](CCNC(=O)c1ccc2[nH]c(C)c(C)c2c1)OC [Compound 120]
STHdh 7/7 striatal cells
  viability at 10 µM: 100%

## Cc1[nH]c2ccc(C(=O)NCC(C)(C)OCC3CC3)cc2c1C [Compound 121]
STHdh 7/7 striatal cells
  viability at 10 µM: 100%

## CCN(CC)CCNCc1ccc2[nH]c(C)c(C)c2c1 [Compound 122]
STHdh 7/7 striatal cells
  viability at 10 µM: 91.2%

## CCN(CCNC(=O)c1ccc2[nH]ccc2c1)C1CC1 [Compound 123]
STHdh 7/7 striatal cells
  viability at 10 µM: 83.8%

## CO[C@@H](CNC(=O)c1ccc2[nH]c(C)c(C)c2c1)C(C)C [Compound 124]
STHdh 7/7 striatal cells
  viability at 10 µM: 76.2%

## Cc1[nH]c2ccc(C(=O)N(C)CCNC(=O)C(C)C)cc2c1C [Compound 125]
STHdh 7/7 striatal cells
  viability at 10 µM: 67.9%

## Cc1[nH]c2ccc(C(=O)N3CCCN(C(C)C)CC3)cc2c1C [Compound 126]
STHdh 7/7 striatal cells
  viability at 10 µM: 42.5%

## C[n+]1ccc(-c2ccccc2)cc1 [MPP+, 1-methyl-4-phenylpyridinium, reference compound]
Zebrafish larvae
  movement frequency: 13.3 movement bouts in 30 minutes
